Source: PubChem BioAssay AID330 (DTP/NCI, 2004)
Values joined by “and” are separate entries in the source; they are usually repeats but may differ in a detail not shown here. Equal values may be shown once. Toxic doses and inconclusive results are not listed.

Test system: P388 leukemia ip, CD2F1 mice, survival T/C
Experiment: NCI In Vivo Anticancer Drug Screen. Data for tumor model P388 Leukemia (intraperitoneal) in CD2F1 (CDF1) mice
Conditions: endpoint: median survival time, higher = longer survival
Summary of the method: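 Mice carrying the transplanted tumor received test compound or vehicle. Survival was recorded in each group, and the value is the treated-group measurement divided by that of the vehicle-treated control group.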

[1] = dose: 12.5 mg/kg/injection, schedule: Q01DX005 (ip), vehicle: saline with Tween-80
[2] = dose: 25.0 mg/kg/injection, schedule: Q01DX005 (ip), vehicle: saline with Tween-80
[3] = dose: 50.0 mg/kg/injection, schedule: Q01DX005 (ip), vehicle: saline with Tween-80
[4] = dose: 100.0 mg/kg/injection, schedule: Q01DX005 (ip), vehicle: saline with Tween-80
[5] = dose: 200.0 mg/kg/injection, schedule: Q01DX005 (ip), vehicle: saline with Tween-80
[6] = dose: 50.0 mg/kg/injection, schedule: Q01DX009 (ip), vehicle: Klucel (hydroxypropylcellulose) (HPC)
[7] = dose: 100.0 mg/kg/injection, schedule: Q01DX009 (ip), vehicle: Klucel (hydroxypropylcellulose) (HPC)
[8] = dose: 200.0 mg/kg/injection, schedule: Q01DX009 (ip), vehicle: Klucel (hydroxypropylcellulose) (HPC)
[9] = dose: 50.0 mg/kg/injection, schedule: Q01DX001 (ip), vehicle: Klucel (hydroxypropylcellulose) (HPC)
[10] = dose: 100.0 mg/kg/injection, schedule: Q01DX001 (ip), vehicle: Klucel (hydroxypropylcellulose) (HPC)

SMILES: O=C1CCCC2C3CCCN4CCCC(CN12)C34 (stereo unspecified)
- T/C (dose: 3.12 mg/kg/injection, schedule: Q01DX007 (ip), vehicle: carboxymethylcellulose (CMC)): 100 % of control
- T/C (dose: 5.0 mg/kg/injection, schedule: Q01DX009 (ip), vehicle: saline): 98 % of control
- T/C (dose: 6.2 mg/kg/injection, schedule: Q01DX007 (ip), vehicle: carboxymethylcellulose (CMC)): 100 % of control
- T/C (dose: 6.25 mg/kg/injection, schedule: Q01DX007 (ip), vehicle: carboxymethylcellulose (CMC)): 100 % of control
- T/C (dose: 10.0 mg/kg/injection, schedule: Q01DX009 (ip), vehicle: saline): 100 % of control and 94 % of control
- T/C (dose: 12.5 mg/kg/injection, schedule: Q01DX007 (ip), vehicle: carboxymethylcellulose (CMC)): 91 % of control
- T/C (dose: 20.0 mg/kg/injection, schedule: Q01DX009 (ip), vehicle: saline): 100 % of control and 110 % of control and 95 % of control
- T/C (dose: 23.0 mg/kg/injection, schedule: Q01DX007 (ip), vehicle: carboxymethylcellulose (CMC)): 100 % of control
- T/C (dose: 25.0 mg/kg/injection, schedule: Q01DX007 (ip), vehicle: carboxymethylcellulose (CMC)): 91 % of control
- T/C (dose: 40.0 mg/kg/injection, schedule: Q01DX009 (ip), vehicle: saline): 102 % of control and 117 % of control and 95 % of control
- T/C (dose: 80.0 mg/kg/injection, schedule: Q01DX009 (ip), vehicle: saline): 98 % of control and 110 % of control and 122 % of control
- T/C (dose: 160.0 mg/kg/injection, schedule: Q01DX009 (ip), vehicle: saline): 102 % of control and 119 % of control

SMILES: C=C1CC2(CC3CC2C2CCCC32)OC1=O (stereo unspecified)
- T/C (dose: 100.0 mg/kg/injection, schedule: Q04DX002 (ip), vehicle: saline): 100 % of control
- T/C (dose: 200.0 mg/kg/injection, schedule: Q04DX002 (ip), vehicle: saline): 94 % of control
- T/C (dose: 400.0 mg/kg/injection, schedule: Q04DX002 (ip), vehicle: saline): 98 % of control

SMILES: O=c1cc2n(c(=O)n1Cc1ccccc1)CCC2
- T/C [1]: 97 % of control
- T/C [2]: 99 % of control
- T/C [3]: 101 % of control

SMILES: N#C[C@H]1C[C@@H](c2ccc([N+](=O)[O-])cc2)N(c2ccc(C=O)cc2)O1
- T/C (dose: 100.0 mg/kg/injection, schedule: Q01DX001 (ip), vehicle: saline with Tween-80): 98 % of control
- T/C (dose: 200.0 mg/kg/injection, schedule: Q01DX001 (ip), vehicle: saline with Tween-80): 98 % of control
- T/C (dose: 400.0 mg/kg/injection, schedule: Q01DX001 (ip), vehicle: saline with Tween-80): 99 % of control

SMILES: OC[P+](CO)(CO)CO
- T/C (dose: 6.25 mg/kg/injection, schedule: Q01DX005 (ip), vehicle: saline with Tween-80): 117 % of control and 96 % of control
- T/C [1]: 114 % of control and 96 % of control
- T/C [2]: 95 % of control
- T/C [3]: 104 % of control and 122 % of control

SMILES: CC(C)(C)N1CC1CNC(=O)C(=O)NCC1CN1C(C)(C)C (stereo unspecified)
- T/C (dose: 3.12 mg/kg/injection, schedule: Q01DX009 (ip), vehicle: saline with Tween-80): 165 % of control
- T/C (dose: 6.25 mg/kg/injection, schedule: Q01DX009 (ip), vehicle: saline with Tween-80): 194 % of control and 203 % of control
- T/C (dose: 12.5 mg/kg/injection, schedule: Q01DX009 (ip), vehicle: saline with Tween-80): 256 % of control and 277 % of control
- T/C (dose: 25.0 mg/kg/injection, schedule: Q01DX009 (ip), vehicle: saline with Tween-80): 177 % of control

SMILES: CCB1OCC(C2OC(O)C3OB(CC)OC32)O1 (stereo unspecified)
- T/C [3]: 101 % of control and 96 % of control
- T/C [4]: 96 % of control
- T/C [5]: 103 % of control and 92 % of control

SMILES: Cc1ccc(S(=O)(=O)/N=S(\C)CCCl)cc1 (stereo unspecified)
- T/C (dose: 100.0 mg/kg/injection, schedule: Q04DX003 (ip), vehicle: suspension in saline): 100 % of control
- T/C (dose: 200.0 mg/kg/injection, schedule: Q04DX003 (ip), vehicle: suspension in saline): 100 % of control
- T/C (dose: 400.0 mg/kg/injection, schedule: Q04DX003 (ip), vehicle: suspension in saline): 106 % of control

SMILES: CC(=O)C(C)(NCc1ccccc1)c1ccccc1 (stereo unspecified)
- T/C [6]: 101 % of control
- T/C [7]: 108 % of control
- T/C [8]: 108 % of control
- T/C (dose: 400.0 mg/kg/injection, schedule: Q01DX009 (ip), vehicle: Klucel (hydroxypropylcellulose) (HPC)): 90 % of control

SMILES: CCOc1ccc(Nc2ncnc3nc[nH]c23)cc1CN(CCCl)CCCl
- T/C (dose: 0.88 mg/kg/injection, schedule: Q01DX009 (ip), vehicle: saline): 154 % of control
- T/C (dose: 2.0 mg/kg/injection, schedule: Q01DX009 (ip), vehicle: saline): 159 % of control
- T/C (dose: 3.0 mg/kg/injection, schedule: Q01DX009 (ip), vehicle: saline): 122 % of control

SMILES: N#CN=[N+]([O-])c1ccc(C(=O)O)cc1
- T/C (dose: 7.5 mg/kg/injection, schedule: Q04DX003 (ip), vehicle: Klucel (hydroxypropylcellulose) (HPC)): 97 % of control
- T/C (dose: 7.5 mg/kg/injection, schedule: Q04DX003 (ip), vehicle: saline with Tween-80): 111 % of control
- T/C (dose: 15.0 mg/kg/injection, schedule: Q04DX003 (ip), vehicle: Klucel (hydroxypropylcellulose) (HPC)): 105 % of control
- T/C (dose: 15.0 mg/kg/injection, schedule: Q04DX003 (ip), vehicle: saline with Tween-80): 112 % of control
- T/C (dose: 30.0 mg/kg/injection, schedule: Q04DX003 (ip), vehicle: saline with Tween-80): 124 % of control

SMILES: Nc1c(S(=O)(=O)O)cc(Nc2cccc(S(=O)(=O)/C=C/S(=O)(=O)O)c2)c2c1C(=O)c1ccccc1C2=O
- T/C (dose: 60.0 mg/kg/injection, schedule: Q01DX005 (ip), vehicle: saline): 99 % of control
- T/C (dose: 120.0 mg/kg/injection, schedule: Q01DX005 (ip), vehicle: saline): 104 % of control
- T/C (dose: 240.0 mg/kg/injection, schedule: Q01DX005 (ip), vehicle: saline): 111 % of control

SMILES: COc1ccc(C(C)c2cc3c(cc2O)OCO3)cc1 (stereo unspecified)
- T/C (dose: 50.0 mg/kg/injection, schedule: Q01DX005 (ip), vehicle: distilled water + Tween-80): 105 % of control
- T/C (dose: 100.0 mg/kg/injection, schedule: Q01DX005 (ip), vehicle: distilled water + Tween-80): 99 % of control
- T/C (dose: 200.0 mg/kg/injection, schedule: Q01DX005 (ip), vehicle: distilled water + Tween-80): 108 % of control

SMILES: CC1=C(C)C(=O)C(C(C)(C)CC(=O)N(C)/N=N/c2nc[nH]c2C(N)=O)=C(C)C1=O
- T/C [4]: 155 % of control
- T/C [5]: 174 % of control

SMILES: C=CCNC(=S)Nc1ncn[nH]1
- T/C (dose: 50.0 mg/kg/injection, schedule: Q01DX005 (ip), vehicle: Klucel (hydroxypropylcellulose) (HPC)): 95 % of control
- T/C (dose: 100.0 mg/kg/injection, schedule: Q01DX005 (ip), vehicle: Klucel (hydroxypropylcellulose) (HPC)): 104 % of control

SMILES: O=C(O)/C=C\C(=O)Nc1ccccc1NC(=O)/C=C/C(=O)O
- T/C (dose: 100.0 mg/kg/injection, schedule: Q04DX003 (ip), vehicle: saline): 91 % of control
- T/C (dose: 200.0 mg/kg/injection, schedule: Q04DX003 (ip), vehicle: saline): 100 % of control
- T/C (dose: 400.0 mg/kg/injection, schedule: Q04DX003 (ip), vehicle: saline): 87 % of control

SMILES: O=C(Nc1ccc(N=C=S)cc1)c1cc(Br)cc(Br)c1O
- T/C [9]: 101 % of control
- T/C [10]: 99 % of control

SMILES: CC1=CN2C(c3ccccc3)=NON(c3ccc(C)cn3)C2C=C1 (stereo unspecified)
- T/C [5]: 92 % of control

SMILES: CC(=O)c1c(-c2ccc(Cl)cc2)c(-c2ccc(Cl)cc2)nn(C(C)CO)c1=O (stereo unspecified)
- T/C [3]: 103 % of control
- T/C [4]: 100 % of control
- T/C [5]: 97 % of control

SMILES: CCCOC(=O)C1(CCl)CCC(=O)O1 (stereo unspecified)
- T/C [6]: 101 % of control
- T/C [7]: 103 % of control
- T/C [8]: 103 % of control

SMILES: CN(C)CC#CC1(O)c2ccccc2CCc2ccccc21
- T/C (dose: 50.0 mg/kg/injection, schedule: Q01DX009 (ip), vehicle: saline): 91 % of control
- T/C (dose: 100.0 mg/kg/injection, schedule: Q01DX009 (ip), vehicle: saline): 91 % of control
- T/C (dose: 200.0 mg/kg/injection, schedule: Q01DX009 (ip), vehicle: saline): 91 % of control

SMILES: C1CN(C[C@H]2CO[C@H](CN3CCOCC3)CO2)CCO1
- T/C (dose: 50.0 mg/kg/injection, schedule: Q01DX005 (ip), vehicle: saline): 91 % of control
- T/C (dose: 100.0 mg/kg/injection, schedule: Q01DX005 (ip), vehicle: saline): 106 % of control
- T/C (dose: 200.0 mg/kg/injection, schedule: Q01DX005 (ip), vehicle: saline): 110 % of control

SMILES: CCN(Cc1cc(Nc2ccnc3cc(Cl)ccc23)ccc1O)C(=O)N1CCN(C)CC1
- T/C (dose: 100.0 mg/kg/injection, schedule: Q04DX002 (ip), vehicle: Klucel (hydroxypropylcellulose) (HPC)): 100 % of control
- T/C (dose: 200.0 mg/kg/injection, schedule: Q04DX002 (ip), vehicle: Klucel (hydroxypropylcellulose) (HPC)): 96 % of control
- T/C (dose: 400.0 mg/kg/injection, schedule: Q04DX002 (ip), vehicle: Klucel (hydroxypropylcellulose) (HPC)): 96 % of control

SMILES: O=c1[nH][nH]c(=O)n1/N=C\c1ccccc1O
- T/C [9]: 100 % of control
- T/C [10]: 104 % of control
- T/C (dose: 200.0 mg/kg/injection, schedule: Q01DX001 (ip), vehicle: Klucel (hydroxypropylcellulose) (HPC)): 98 % of control
